pIC50: −log10 of the molar value.

In test [1] the target is T1, microsomal triglyceride transfer protein (MTP) (Mesocricetus auratus, UniProt P55158).
T1 construct: The supernatant comprising the soluble MTP is dialysed against Tris/HCl 150 mM; from tissue; host or cells: golden hamster liver microsomes, deoxycholate-solubilised supernatant
T1 sequence (P55158 19-895): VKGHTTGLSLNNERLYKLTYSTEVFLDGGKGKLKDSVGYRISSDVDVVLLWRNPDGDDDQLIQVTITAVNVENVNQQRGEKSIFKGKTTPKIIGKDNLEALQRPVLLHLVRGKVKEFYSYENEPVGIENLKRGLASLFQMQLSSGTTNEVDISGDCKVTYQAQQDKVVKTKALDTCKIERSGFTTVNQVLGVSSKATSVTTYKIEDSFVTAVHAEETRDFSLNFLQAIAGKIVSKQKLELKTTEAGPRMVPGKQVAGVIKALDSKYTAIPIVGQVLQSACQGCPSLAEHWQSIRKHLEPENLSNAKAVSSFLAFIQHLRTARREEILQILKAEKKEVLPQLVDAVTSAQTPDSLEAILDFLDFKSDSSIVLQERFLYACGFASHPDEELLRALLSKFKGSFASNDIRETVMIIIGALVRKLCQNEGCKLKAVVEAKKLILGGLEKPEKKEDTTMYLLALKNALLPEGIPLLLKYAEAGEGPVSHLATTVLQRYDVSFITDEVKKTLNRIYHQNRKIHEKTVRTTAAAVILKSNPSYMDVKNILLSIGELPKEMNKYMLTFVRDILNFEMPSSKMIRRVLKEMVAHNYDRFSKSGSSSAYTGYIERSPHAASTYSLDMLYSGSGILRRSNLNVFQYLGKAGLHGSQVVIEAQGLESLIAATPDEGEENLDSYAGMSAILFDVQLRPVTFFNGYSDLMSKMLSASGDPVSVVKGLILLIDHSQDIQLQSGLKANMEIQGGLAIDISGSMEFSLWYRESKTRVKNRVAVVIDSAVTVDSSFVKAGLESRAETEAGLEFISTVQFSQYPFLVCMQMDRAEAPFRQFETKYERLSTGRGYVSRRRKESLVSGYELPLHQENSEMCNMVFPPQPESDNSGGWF
The test is described as follows: Inhibition of MTP activity (transfer of [3H]-triolein from donor liposomes to biotinylated LDL, SPA). In kind it is biochemical. To be noted: MTP from golden hamster liver microsomes; incubation 18-24 hours at 37° C.; read-out: IC50 (concentration that allows a 50% inhibition of MTP). How it is done: Analysis of the Inhibition of MTP Activity
The inhibition of the activity of microsomal triglyceride transfer protein (MTP) was tested by using the following operating protocol.
The inhibition of MTP activity with a compound can be quantified by observing the inhibition of the transfer of a labelled triglyceride, from a donor particle to an acceptor particle, in the presence of MTP. The procedure for the preparation of MTP is based on the method by Wetterau and Zilversmit (Biochem. Biophys. Acta (1986) 875, 610). A few grams of golden hamster liver are taken and then rinsed several times in a 250 mM sucrose solution at 0° C. All the following steps proceed at +4° C. A homogenate at a concentration of 50% in 250 mM sucrose is prepared using a Teflon mill and then centrifuged for 10 minutes at 10 000×g at +4° C. The supernatant is then centrifuged at 105 000×g for 75 minutes at +4° C. The supernatant is discarded and the microsomal pellet is taken up in 3 ml (per g of starting liver) of Tris/HCl 150 mM pH 8.0. 1 ml aliquot fractions are stored at −80° C. until the time of use.
After thawing a fraction of microsomes (1 ml), 12 ml of refrigerated Tris/HCl 50 mM, KCl 50 mM, MgCl2 5 mM pH 7.4 buffers and 1.2 ml of deoxycholate (0.54% in water) are added. After incubation for 30 minutes at +4° C. with gentle agitation, the suspension is centrifuged at 105 000×g for 75 minutes. The supernatant comprising the soluble MTP is dialysed against Tris/HCl 150 mM, NaCl 40 mM, EDTA 1 mM, 0.02% sodium azide pH 7.4 buffer (5 times one litre over 2-3 days). The MTP is stored at +4° C., is stable for at least 30 days and is used in unmodified form in the test.
The donor particles (liposomes) are prepared from 208 μl of L-phosphatidylcholine at a concentration of 10 mg/ml in chloroform, and 480 μl of [3H]-triolein at a concentration of 0.5 mCi/ml in toluene. After stirring, the solution is evaporated under nitrogen, taken up in 6 ml of Tris/HCl 50 mM, KCl 50 mM, MgCl2 5 mM pH 7.4 buffer and incubated in an ultrasound bath for 30 minutes at room temperature. The liposomes are stored at +4° C. and sonicated again for 10 minutes before each use.
The acceptor particles are biotinylated low density lipoproteins (LDL-biot). These particles are supplied by the company Amersham.
The reaction mixture is prepared in untreated ½ well white plates (Corning Costar) by addition, in the following order, of: 5 μl of HEPES 50 mM, NaCl-150 mM, BSA 0.1% (w/v), 0.05% sodium azide (w/v), pH 7.4 buffer; 5 μl of liposomes; 5 μl of LDL-biot; 5 μl of test products in DMSO; 5 μl of MTP. After incubation for 18-24 hours at 37° C., the reaction is stopped by adding 100 μl of Amersham SPA (scintillation proximity assay) beads coupled to streptavidin, and the radioactivity is counted using a Top Count (Packard) machine at least one hour later. The inhibition of the transfer of the triglycerides with a compound is reflected by a reduction in the transferred radioactivity.
The results are expressed in terms of the IC50, i.e. the concentration that allows a 50% inhibition of MTP.
For orientation: Microsomes from liver hold many membrane-bound enzymes, among them those of drug oxidation.

In test [2] the test system is apo B secretion in HepG2 cells. The test is described as follows: Secretion of apo B in the HepG2 human cell line (sandwich ELISA). In kind it is cell-based. To be noted: 24 hours incubation, culture supernatant, ELISA for human apo B, read-out: IC50 (concentration that produces a 50% inhibition of apo B secretion in the HepG2 cells). As for the experimental part:
Analysis of the Secretion of Apo B in the HepG2 Human Cell Line:
The activity of a compound according to the invention can be evaluated by measuring the inhibition of apo B secretion in HepG2 cells.
The HepG2 cells (ECACC-No. 85011430) are used as model in the study of the in vitro hepatic secretion of lipoproteins (Dixon J. and Ginsberg H., J. Lipid. Res., 1993, 34, 167-179).
The HepG2 cells are cultured in Dulbecco's modified Eagle's medium comprising 10% foetal calf serum (DMEM and FBS-Gibco) in 96-well plates under an atmosphere of 5% carbon dioxide for 24 hours (about 70% confluence).
The test compounds are dissolved at a concentration of 2 or 10 mM in dimethyl sulfoxide (DMSO). Serial dilutions (1:3.16) are made in DMSO and are:added (1:200—Robot Multimek Beckman) to the growth medium (200 μl) and then finally incubated for 24 hours in the various wells containing the HepG2 cells.
The 24-hour culture supernatant diluted to 1:5 (phosphate-buffered saline: PBS comprising 1% bovine serum albumin) is tested according to a sandwich-ELISA method specific for human apo B.
The results are expressed in terms of IC50, i.e. the concentration that produces a 50% inhibition of apo B secretion in the HepG2 cells.
A general note: ELISA stands for enzyme-linked immunosorbent assay.

For `CCn1c(-c2csc(C3CCN(C(=O)c4cccc(C)c4-c4ccc(OC(F)(F)F)cc4)CC3)n2)nc(-c2ccccc2)c1C` [Example 1, {4-[4-(1-Ethyl-5-methyl-4-phenyl-1H-imidazol-2-yl)thiazol-2-yl]piperid-1-yl}(6-methyl-4′-trifluoromethoxybiphenyl-2-yl)methanone], the figures for the pIC50 in test [1] and in test [2] were 6.49 and 6.43, respectively. The matching figures for `Cc1c(-c2ccccc2)nc(-c2csc(C3CCN(C(=O)c4ccccc4-c4ccc(C(F)(F)F)cc4)CC3)n2)n1C` [Example 2, {4-[4-(1,5-dimethyl-4-phenyl-1H-imidazol-2-yl)thiazol-2-yl]piperid-1-yl}(4′-trifluoromethylbiphenyl-2-yl)methanone]: 6.52 and 6.21. Turning to `CCn1c(-c2csc(C3CCCN(C(=O)c4ccccc4-c4ccc(C(F)(F)F)cc4)C3)n2)nc(-c2ccccc2)c1C` (stereo not shown) [Example 7, {3-[4-(1-ethyl-5-methyl-4-phenyl-1H-imidazol-2-yl)thiazol-2-yl]piperid-1-yl}(4′-trifluoromethylbiphenyl-2-yl)methanone], the pIC50 in test [2] was 5.68. For the molecule `CCn1c(-c2csc(C3CCN(C(=O)c4ccccc4-c4ccc(C(F)(F)F)cc4)CC3)n2)nc(-c2ccccn2)c1C` [Example 5, {4-[4-(1-ethyl-5-methyl-4-(pyrid-2-yl)-1H-imidazol-2-yl)thiazol-2-yl]-piperid-1-yl}(4′-trifluoromethylbiphenyl-2-yl)methanone], the pIC50 was 5.59 in test [1] and 5.58 in test [2].

Regarding `CCn1c(-c2csc(C3CCN(C(=O)c4ccccc4-c4ccc(C(F)(F)F)cc4)CC3)n2)nc(-c2ccccc2)c1C` [Example 3, {4-[4-(1-ethyl-5-methyl-4-phenyl-1H-imidazol-2-yl)thiazol-2-yl]piperid-1-yl}(4′-trifluoromethylbiphenyl-2-yl)methanone], the pIC50 in test [1] was 6.57; in test [2], 6.41.

In the case of `CCn1c(-c2csc(C3CCN(C(=O)c4ccccc4-c4ccc(C(F)(F)F)cc4)CC3)n2)nc(-c2cccnc2)c1C` [Example 4, {4-[4-(1-ethyl-5-methyl-4-(pyrid-3-yl)-1H-imidazol-2-yl)thiazol-2-yl]-piperid-1-yl}(4′-trifluoromethylbiphenyl-2-yl)methanone], the pIC50 was 6.09 in test [1] and 5.80 in test [2].

As for `CCn1c(-c2csc(C3CCN(C(=O)c4cccc(C)c4-c4ccc(OC(F)(F)F)cc4)CC3)n2)nc(-c2ccccn2)c1C` [Example 6, {4-[4-(1-ethyl-5-methyl-4-(pyrid-2-yl)-1H-imidazol-2-yl)thiazol-2-yl]-piperid-1-yl}(6-methyl-4′-trifluoromethoxybiphenyl-2-yl)methanone], the values for the pIC50 in test [1] and in test [2] were 5.74 and 5.64, respectively.

The record behind these values is US7767819B2, “Thiazolylimidazole derivatives and their use as inhibitors of microsomal triglyceride transfer protein” (Merck Patent GmbH, priority 2004, dated 2010).
